Measured values from US20210078917A1, “FUNGICIDAL FERTILIZER COMPOSITION COMPRISING POTASSIUM PHOSPHITE AND GAMMA-POLY-GLUTAMIC ACID” (JIANGSU HUIFENG BIO AGRICULTURE CO., LTD., priority 2018, published 2021).

Legend:
Disease (black fruit) = experiment: Disease control test of Chinese wolfberry, black fruit; format: in vivo, Chinese wolfberry "Ningqi No. 7"
Protocol: The test was carried out in a Chinese wolfberry planting test plot in Koluke Town, Delingha City, Qinghai Province. Chinese wolfberry plants were all three-year-old seedlings of variety “Ningqi No. 7” at a density of 270 plants/667 m^2. This experiment was designed such that different plots were arranged in order. […] Fertilization method: It was applied together with other base fertilizers, by laying the fertilizer at the bottom of the planting pit, where the depth of the trench was 70 cm, the diameter of the pit was 80 cm, and the soil was mixed in and applied at the bottom when applying fertilizer. The yield, quality and control effect on disease on fresh Chinese wolfberry fruit were determined.

root rot of potatoes = experiment: Disease control test of potatoes (field), root rot; format: in vivo, potato
Protocol: (§1) (1) Yield increase and disease control test of potatoes with fungicidal fertilizer composition of the present invention. This test was conducted in 2017 in Anding District, Dingxi City, Gansu Province. This area is a typical semi-arid rain-fed agricultural area. The soil type is loessial soil, with deep soil layers and uniform soil fertility. The previous crop is rape. The fertilizer of the present invention was totally applied as a base fertilizer at a time. […] Ridging after flat planting in wide and narrow rows was adopted. The wide row spacing was 60 cm, the narrow row spacing was 30 cm, the plant spacing was 30 cm, the sowing depth was 15 cm, and the plant density was 58,000 plants·hm^−2. Other field management was the same as that in large area of field. The number of large- and medium-sized potatoes ([…]) per plant was randomly determined, and the relative increase rate of large- and medium-sized potatoes was determined. The yield per mu and the relative increase rate of yield were determined. The crude starch content and increase rate of crude starch content were determined. The control effect on root rot of potatoes was also determined.

peanut = experiment: Yield increase and quality test of peanut; format: in vivo
Protocol: (§2) […]. Fertilization method: The fertilizer was applied three times by spraying during the flowering and fruiting period. The yield, quality and control effect on disease on peanut were determined.

[1] = system: root rot, a soil-borne disease of soybeans; experiment: Disease control test of soybean, root rot; format: in vivo
Protocol: (§3) Fertilization method: The fertilizer was co-applied with other fertilizers. The yield, quality and control effect on disease on soybean were determined.

stem rot of peanut = experiment: Disease control test of peanut, stem rot; format: in vivo
Protocol: as §2

potatoes = experiment: Yield increase test of potatoes (field); format: in vivo, potato
Protocol: as §1

Disease (blight) = experiment: Disease control test of pepper, blight; format: in vivo; conditions: 40 g active ingredient per mu
Protocol: This fertilizer was applied on the basis of conventional fertilization in each treatment area. Fertilization method: The fertilizer was applied by spraying during the seedling stage of pepper. The yield, quality and control effect on disease on pepper were determined.

tomato = experiment: Yield increase and quality test of tomato; format: in vivo; conditions: 60 g active ingredient per mu
Protocol: […]. This fertilizer was applied on the basis of conventional fertilization in each treatment area. Fertilization method: The fertilizer was applied by spraying during the seedling stage of tomato. The yield, quality and control effect on disease on tomato were determined.

Disease (rot) = experiment: Disease control test of tomato, rot; format: in vivo; conditions: 60 g active ingredient per mu
Protocol: This fertilizer was applied on the basis of conventional fertilization in each treatment area. Fertilization method: The fertilizer was applied by spraying during the seedling stage of tomato. The yield, quality and control effect on disease on tomato were determined.

soybean = experiment: Yield increase test of soybean; format: in vivo; conditions: for Yield (667 M^2): per 667 M^2
Protocol: as §3

[2] = amount 50 g active ingredient/mu
[3] = amount 100 g active ingredient/mu
[4] = amount 400 g active ingredient/mu

## γ-poly-glutamic acid
Disease (black fruit); 50 g/mu, 10 days after application
  Disease (black fruit): Control effect: 17.56%
Disease (black fruit); 50 g/mu, 30 days after application
  Disease (black fruit): Control effect: 10.99%
Disease (black fruit); 100 g/mu, 10 days after application
  Disease (black fruit): Control effect: 29.17%
Disease (black fruit); 100 g/mu, 30 days after application
  Disease (black fruit): Control effect: 21.35%
Root rot of potatoes; amount 50 g active ingredient/mu, 10 days after application
  Control effect: 9.87%
Root rot of potatoes; amount 50 g active ingredient/mu, 30 days after application
  Control effect: 4.34%
Root rot of potatoes; amount 100 g active ingredient/mu, 10 days after application
  Control effect: 17.34%
Root rot of potatoes; amount 100 g active ingredient/mu, 30 days after application
  Control effect: 14.47%
Root rot of potatoes; amount 400 g active ingredient/mu, 10 days after application
  Control effect: 32.51%
Root rot of potatoes; amount 400 g active ingredient/mu, 30 days after application
  Control effect: 25.37%
peanut; 30 g/mu
  Quality: Linoleic acid: 44.52%
  Quality: Protein: 22.91%
  Yield: 285.3 kg/mu
  Yield: Seed yield: 66.7%
  Yield: Weight per 100 fruits: 113.4 g
peanut; 60 g/mu
  Quality: Linoleic acid: 45.36%
  Quality: Protein: 24.31%
  Yield: 310.8 kg/mu
  Yield: Seed yield: 69.1%
  Yield: Weight per 100 fruits: 126.7 g
[1]; 15 g/mu, 12 days after application
  Control effect: 9.70%
[1]; 15 g/mu, 35 days after application
  Control effect: 4.22%
[1]; 50 g/mu, 12 days after application
  Control effect: 14.20%
[1]; 50 g/mu, 35 days after application
  Control effect: 7.86%
[1]; 100 g/mu, 12 days after application
  Control effect: 20.13%
[1]; 100 g/mu, 35 days after application
  Control effect: 10.67%
[1]; 300 g/mu, 12 days after application
  Control effect: 22.71%
[1]; 300 g/mu, 35 days after application
  Control effect: 15.76%
[1]; 600 g/mu, 12 days after application
  Control effect: 27.52%
[1]; 600 g/mu, 35 days after application
  Control effect: 18.89%
Stem rot of peanut; 30 g/mu, 10 days after application
  Disease (Stem rot): Control effect: 20.41%
Stem rot of peanut; 30 g/mu, 30 days after application
  Disease (Stem rot): Control effect: 6.21%
Stem rot of peanut; 60 g/mu, 10 days after application
  Disease (Stem rot): Control effect: 31.29%
Stem rot of peanut; 60 g/mu, 30 days after application
  Disease (Stem rot): Control effect: 11.58%
potatoes; [2]
  Crude starch content: 16.1%
  Fresh weight of large- and medium-sized potatoes: 481.3 g/plant
  Increase rate of crude starch content: 1.9%
  Increase rate of large- and medium-sized potatoes: 6.5%
  Increase rate of yield: 4.4%
  Yield: 1343 kg/mu
potatoes; [3]
  Crude starch content: 16.4%
  Fresh weight of large- and medium-sized potatoes: 492.6 g/plant
  Increase rate of crude starch content: 3.8%
  Increase rate of large- and medium-sized potatoes: 9.0%
  Increase rate of yield: 7.5%
  Yield: 1383 kg/mu
potatoes; [4]
  Crude starch content: 17.1%
  Fresh weight of large- and medium-sized potatoes: 499.3 g/plant
  Increase rate of crude starch content: 8.2%
  Increase rate of large- and medium-sized potatoes: 10.5%
  Increase rate of yield: 10.6%
  Yield: 1422 kg/mu
Disease (blight); 10 days after application
  Disease (blight): Control effect: 26.27%
Disease (blight); 42 days after application
  Disease (blight): Control effect: 10.26%
tomato
  Quality: Amino acid: 610.17 mg/100 kg
  Quality: Vitamin C: 17.32 mg/100 g
  Yield: Total yield: 3519 kg/mu
  Yield: Weight of single fruit: 21.7 g
Disease (rot); 12 days after application
  Disease (rot): Control effect: 21.35%
Disease (rot); 45 days after application
  Disease (rot): Control effect: 7.26%
soybean; 15 g/mu
  Branches: 17.5 count
  Increase rate (branches): 1.2%
  Increase rate (weight per 100 grains): 2.8%
  Increase rate (yield): 2.9%
  Weight per 100 grains: 25.43 g
  Yield (667 M^2): 181.7
soybean; 50 g/mu
  Branches: 17.8 count
  Increase rate (branches): 2.7%
  Increase rate (weight per 100 grains): 3.5%
  Increase rate (yield): 4.5%
  Weight per 100 grains: 25.61 g
  Yield (667 M^2): 184.5
soybean; 100 g/mu
  Branches: 18.0 count
  Increase rate (branches): 4.1%
  Increase rate (weight per 100 grains): 4.1%
  Increase rate (yield): 5.7%
  Weight per 100 grains: 25.75 g
  Yield (667 M^2): 186.7
soybean; 300 g/mu
  Branches: 18.1 count
  Increase rate (branches): 4.6%
  Increase rate (weight per 100 grains): 5.3%
  Increase rate (yield): 7.3%
  Weight per 100 grains: 26.05 g
  Yield (667 M^2): 189.5
soybean; 600 g/mu
  Branches: 18.3 count
  Increase rate (branches): 5.7%
  Increase rate (weight per 100 grains): 6.8%
  Increase rate (yield): 10.5%
  Weight per 100 grains: 26.42 g
  Yield (667 M^2): 195.1
